Patent US20250034136A1 (Nimbus Wadjet, Inc., priority 2023, published 2025)

What was measured:
[1] = system: p21 induction in HCT116 cells; assay: p21 induction in HCT116 cells; format: cell-based; settings: Homo sapiens, HCT-116, 24 h, HCT116 cells, 24 h compound incubation; read-out: P21_EC50
How it was run: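 EC50 from non-linear curve fit of p21 immunofluorescence (800 nm), with GAPDH (700 nm) read alongside. DMSO and a reference WRN inhibitor served as low and high controls. Cells (2,000/well) got 11 compound concentrations in duplicate for 24 h at 37 °C.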

[2] = molecular target: WRN (BV08), human Werner helicase (Uniprot Q14191, amino acids 517-1235 with L1074F point mutation) (Homo sapiens (Human), UniProt Q14191, L1074F); assay: WRN (BV08) ADP-Glo assay; format: biochemical; settings: class symbols A-E, read-out: ADP-Glo_hWRN_IC50
Sequence of WRN (BV08), human Werner helicase (Uniprot Q14191, amino acids 517-1235 with L1074F point mutation) (Q14191 other isoform, or with tags, fused parts or gaps L1074F (already in the parent)): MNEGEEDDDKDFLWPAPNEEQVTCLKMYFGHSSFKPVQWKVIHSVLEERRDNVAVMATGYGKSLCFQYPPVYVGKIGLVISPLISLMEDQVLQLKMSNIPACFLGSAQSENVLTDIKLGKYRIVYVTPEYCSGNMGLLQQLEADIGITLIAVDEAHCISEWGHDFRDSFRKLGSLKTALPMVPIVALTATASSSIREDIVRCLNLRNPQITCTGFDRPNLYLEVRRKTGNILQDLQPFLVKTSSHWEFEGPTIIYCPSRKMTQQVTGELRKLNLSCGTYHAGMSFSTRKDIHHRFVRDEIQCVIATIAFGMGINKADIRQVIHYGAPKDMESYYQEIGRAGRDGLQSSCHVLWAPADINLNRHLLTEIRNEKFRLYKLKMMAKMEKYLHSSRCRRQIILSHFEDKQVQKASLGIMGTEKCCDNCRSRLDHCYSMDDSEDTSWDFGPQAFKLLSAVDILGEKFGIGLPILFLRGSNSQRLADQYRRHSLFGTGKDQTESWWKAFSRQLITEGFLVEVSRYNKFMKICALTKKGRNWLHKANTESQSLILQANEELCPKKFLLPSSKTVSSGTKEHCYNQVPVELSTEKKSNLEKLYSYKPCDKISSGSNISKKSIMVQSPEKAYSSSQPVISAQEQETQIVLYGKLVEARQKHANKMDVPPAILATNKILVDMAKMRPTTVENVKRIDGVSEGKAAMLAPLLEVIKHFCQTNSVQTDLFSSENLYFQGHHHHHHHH

SMILES | EC50 [1] [nM] | IC50 [2] [nM]
CCc1c(N2CCN(C(=O)c3ncnc(C)c3O)CC2)c(=O)c2nc(-c3cnn(C)c3)c(C)nc2n1CC(=O)Nc1ccc(C(F)(F)F)cc1Cl [I-63, N-(2-chloro-4-(trifluoromethyl)phenyl)-2-(6-ethyl-7-(4-(5-hydroxy-6-methylpyrimidine-4-carbonyl)piperazin-1-yl)-3-methyl-2-(1-methyl-1H-pyrazol-4-yl)-8-oxopyrido[2,3-b]pyrazin-5(8H)-yl)acetamide] | > 5000 | 5 to 50
CCc1c(N2CCN(C(=O)c3ncnc(C)c3O)C[C@@H]2C)c(=O)c2nc(N3CC[C@@H]3COC)cnc2n1CC(=O)Nc1ccc(C(F)(F)F)cc1Cl [I-189, N-[2-chloro-4-(trifluoromethyl)phenyl]-2-{6-ethyl-7-[(2S)-4-(5-hydroxy-6-methylpyrimidine-4-carbonyl)-2-methylpiperazin-1-yl]-2-[(2R)-2-(methoxymethyl)azetidin-1-yl]-8-oxo-5H,8H-pyrido[2,3-b]pyrazin-5-yl}acetamide] | 500 to 2000 | 5 to 50
CCc1c(N2CCN(C(=O)c3ncnc(C)c3O)C[C@@H]2CC)c(=O)c2nc(N(C)C)cnc2n1CC(=O)Nc1ccc(C(F)(F)F)cc1Cl [I-191, N-[2-chloro-4-(trifluoromethyl)phenyl]-2-[2-(dimethylamino)-6-ethyl-7-[(2S)-2-ethyl-4-(5-hydroxy-6-methylpyrimidine-4-carbonyl)piperazin-1-yl]-8-oxo-5H,8H-pyrido[2,3-b]pyrazin-5-yl]acetamide] | 500 to 2000 | 5 to 50
CCc1c(N2CCN(C(=O)c3ncnc(C)c3O)[C@H]3CC[C@@H]32)c(=O)c2nc(N(C)C)c(C)nc2n1CC(=O)Nc1ccc(C(F)(F)F)cc1Cl [I-107, N-(2-chloro-4-(trifluoromethyl)phenyl)-2-(2-(dimethylamino)-6-ethyl-7-((1S,6S)-5-(5-hydroxy-6-methylpyrimidine-4-carbonyl)-2,5-diazabicyclo[4.2.0]octan-2-yl)-3-methyl-8-oxopyrido[2,3-b]pyrazin-5(8H)-yl)acetamide] | < 500 | ≤ 5
CCc1c(N2CCN(C(=O)c3c(O)ccnc3OC)CC2)c(=O)c2nc(N(C)C)cnc2n1CC(=O)Nc1ccc(C(F)(F)F)cc1Cl [I-51, N-(2-chloro-4-(trifluoromethyl)phenyl)-2-(2-(dimethylamino)-6-ethyl-7-(4-(4-hydroxy-2-methoxynicotinoyl)piperazin-1-yl)-8-oxopyrido[2,3-b]pyrazin-5(8H)-yl)acetamide] | < 500 | 5 to 50
CCc1c(N2CCN(C(=O)c3ncnc(C)c3O)CC2)c(=O)c2nc(CCO)cnc2n1CC(=O)Nc1ccc(C(F)(F)F)cc1Cl [I-41, N-(2-chloro-4-(trifluoromethyl)phenyl)-2-(6-ethyl-7-(4-(5-hydroxy-6-methylpyrimidine-4-carbonyl)piperazin-1-yl)-2-(2-hydroxyethyl)-8-oxopyrido[2,3-b]pyrazin-5(8H)-yl)acetamide] | > 5000 | 100 to 500
CCc1c(N2CCN(C(=O)c3ncnc(C)c3O)CC2)c(=O)c2nc(NCC3CC3)cnc2n1CC(=O)Nc1ccc(C(F)(F)F)cc1Cl [I-186, N-[2-chloro-4-(trifluoromethyl)phenyl]-2-{2-[(cyclopropylmethyl)amino]-6-ethyl-7-[4-(5-hydroxy-6-methylpyrimidine-4-carbonyl)piperazin-1-yl]-8-oxo-5H,8H-pyrido[2,3-b]pyrazin-5-yl}acetamide] | 2000 to 5000 | 5 to 50
CCc1c(N2CCN(C(=O)c3ncc4c(c3O)OCC4)CC2)c(=O)c2nc(N(C)C3CC3)cnc2n1CC(=O)Nc1ccc(C(F)(F)F)cc1Cl [I-203, N-[2-chloro-4-(trifluoromethyl)phenyl]-2-{2-[cyclopropyl(methyl)amino]-6-ethyl-7-(4-{7-hydroxy-2H,3H-furo[3,2-c]pyridine-6-carbonyl}piperazin-1-yl)-8-oxo-5H,8H-pyrido[2,3-b]pyrazin-5-yl}acetamide] | 500 to 2000 | ≤ 5
CCc1c(N2CCN(C(=O)c3cnn(C)c3)[C@H]3CC[C@@H]32)c(=O)c2nc(N(C)C)cnc2n1CC(=O)Nc1ccc(C(F)(F)F)cc1Cl [I-184, N-[2-chloro-4-(trifluoromethyl)phenyl]-2-[2-(dimethylamino)-6-ethyl-7-[(1S,6S)-5-(1-methyl-1H-pyrazole-4-carbonyl)-2,5-diazabicyclo[4.2.0]octan-2-yl]-8-oxo-5H,8H-pyrido[2,3-b]pyrazin-5-yl]acetamide] | 2000 to 5000 | 5 to 50
CCc1c(N2CCN(C(=O)c3ncnc(C)c3O)CC2)c(=O)c2nc(C=C3CC(C)(O)C3)cnc2n1CC(=O)Nc1ccc(C(F)(F)F)cc1Cl (stereo not shown) [I-180, N-[2-chloro-4-(trifluoromethyl)phenyl]-2-{6-ethyl-2-[(3-hydroxy-3-methylcyclobutylidene)methyl]-7-[4-(5-hydroxy-6-methylpyrimidine-4-carbonyl)piperazin-1-yl]-8-oxo-5H,8H-pyrido[2,3-b]pyrazin-5-yl}acetamide] | 500 to 2000 | 5 to 50
CCc1c(N2CCN(C(=O)c3nccc(Cl)c3O)CC2)c(=O)c2nc(N(C)C)cnc2n1CC(=O)Nc1ccc(C(F)(F)F)cc1Cl [I-218, 2-{7-[4-(4-chloro-3-hydroxypyridine-2-carbonyl)piperazin-1-yl]-2-(dimethylamino)-6-ethyl-8-oxo-5H,8H-pyrido[2,3-b]pyrazin-5-yl}-N-[2-chloro-4-(trifluoromethyl)phenyl]acetamide] | 500 to 2000 | ≤ 5
CCc1c(N2CCN(C(=O)c3c(OC)ncc(C)c3O)C[C@@H]2C)c(=O)c2nc(N(C)C)cnc2n1CC(=O)Nc1ccc(C(F)(F)F)cc1Cl [I-228, N-[2-chloro-4-(trifluoromethyl)phenyl]-2-[2-(dimethylamino)-6-ethyl-7-[(2S)-4-(4-hydroxy-2-methoxy-5-methylpyridine-3-carbonyl)-2-methylpiperazin-1-yl]-8-oxo-5H,8H-pyrido[2,3-b]pyrazin-5-yl]acetamide] | < 500 | 5 to 50
CCc1c(N2CCN(C(=O)c3ncnc(C)c3O)[C@H]3CC[C@@H]32)c(=O)c2nc(N(C)C)cnc2n1CC(=O)Nc1ccc(OC(F)(F)F)cc1Cl [I-199, N-[2-chloro-4-(trifluoromethoxy)phenyl]-2-[2-(dimethylamino)-6-ethyl-7-[(1S,6S)-5-(5-hydroxy-6-methylpyrimidine-4-carbonyl)-2,5-diazabicyclo[4.2.0]octan-2-yl]-8-oxo-5H,8H-pyrido[2,3-b]pyrazin-5-yl]acetamide] | < 500 | 5 to 50
CCc1c([C@]23CCN(C(=O)c4ncnc(C)c4O)C[C@H]2C3)c(=O)c2nc(N(C)C)cnc2n1CC(=O)Nc1ccc(C(F)(F)F)cc1Cl (single isomer, unassigned) [I-277, N-(2-chloro-4-(trifluoromethyl)phenyl)-2-(2-(dimethylamino)-6-ethyl-7-(3-(5-hydroxy-6-methylpyrimidine-4-carbonyl)-3-azabicyclo[4.1.0]heptan-6-yl)-8-oxopyrido[2,3-b]pyrazin-5(8H)-yl)acetamide] | 500 to 2000 | 5 to 50
